# Biological target: T1, G12D-mutant human KRAS (amino acid residues 1-188) (Homo sapiens, UniProt P01116, G12D)
# T1 construct: G12D or G12C-mutant human KRAS (amino acid residues 1-188) with FLAG tag; made in house; host or cells: E. coli
# Experiment: KRAS Binding Disruption Assay (AlphaScreen; biotinylated KRpep-2d analogue or RAF1-RBD), G12D
# Conditions: KRAS G12D; geometric mean; read-out: KRAS GMean IC50 (uM) MUTATION: G12D
# Outline: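 Displacement format with mutant KRAS, biotinylated KRpep-2d analogue or RAF1-RBD (5-20 nM each) at pH 7.5 with 5 mM MgCl2.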
# T1 sequence (P01116 1-188 isoform P01116-2 G12D): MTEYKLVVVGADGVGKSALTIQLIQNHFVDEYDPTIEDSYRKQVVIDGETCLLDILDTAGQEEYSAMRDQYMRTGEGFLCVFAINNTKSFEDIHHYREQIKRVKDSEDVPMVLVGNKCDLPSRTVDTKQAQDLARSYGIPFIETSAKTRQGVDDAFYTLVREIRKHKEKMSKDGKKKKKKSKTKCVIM
row,IC50 [µM],SMILES
1,0.0001 to 10,"OCC1(CNc2nc(N3C[C@H]4CC[C@@H](C3)N4)c3ccc(-c4cc(O)cc5ccccc45)c(F)c3n2)CC1 [P-0582, 4-(4-((1R,5S)-3,8-diazabicyclo[3.2.1]octan-3-yl)-8-fluoro-2-(((1-(hydroxymethyl)cyclopropyl)methyl)amino)quinazolin-7-yl)naphthalen-2-ol]"
2,0.0001 to 10,"OCC1(COc2nc(N3C[C@H]4CC[C@@H](C3)N4)c3ccc(-c4cc(O)cc5ccccc45)c(F)c3n2)CC(O)C1 (stereo partly drawn) [P-0583, 4-(4-((1R,5S)-3,8-diazabicyclo[3.2.1]octan-3-yl)-8-fluoro-2-((3-hydroxy-1-(hydroxymethyl)cyclobutyl)methoxy)quinazolin-7-yl)naphthalen-2-ol]"
3,0.0001 to 10,"OCC1(CNc2nc(N3C[C@H]4CC[C@@H](C3)N4)c3ccc(-c4cc(O)cc5ccccc45)c(F)c3n2)CCC1 [P-0587, 4-(4-((1R,5S)-3,8-diazabicyclo[3.2.1]octan-3-yl)-8-fluoro-2-(((1-(hydroxymethyl)cyclobutyl)methyl)amino)quinazolin-7-yl)naphthalen-2-ol]"
4,0.0001 to 10,"OCC1(COc2nc(N3C[C@H]4CC[C@@H](C3)N4)c3ccc(-c4cc(O)cc5ccccc45)c(F)c3n2)CCCC1 [P-0588, 4-(4-((1R,5S)-3,8-diazabicyclo[3.2.1]octan-3-yl)-8-fluoro-2-((1-(hydroxymethyl)cyclopentyl)methoxy)quinazolin-7-yl)naphthalen-2-ol]"

# Further lines, the compound ahead of its results:
row,SMILES,IC50 [µM]
1,"OCC(COc1nc(N2C[C@H]3CC[C@@H](C2)N3)c2ccc(-c3cc(O)cc4ccccc34)c(F)c2n1)c1ccccc1 (stereo partly drawn) [P-0584, 4-(4-((1R,5S)-3,8-diazabicyclo[3.2.1]octan-3-yl)-8-fluoro-2-(3-hydroxy-2-phenylpropoxy)quinazolin-7-yl)naphthalen-2-ol]",0.0001 to 10
2,"CC(C)(C)C(CO)COc1nc(N2C[C@H]3CC[C@@H](C2)N3)c2ccc(-c3cc(O)cc4ccccc34)c(F)c2n1 (stereo partly drawn) [P-0585, 4-(4-((1R,5S)-3,8-diazabicyclo[3.2.1]octan-3-yl)-8-fluoro-2-(2-(hydroxymethyl)-3,3-dimethylbutoxy)quazolin-7-yl)naphthalen-2-ol]",0.0001 to 10
3,"CC(C)C(CO)COc1nc(N2C[C@H]3CC[C@@H](C2)N3)c2ccc(-c3cc(O)cc4ccccc34)c(F)c2n1 (stereo partly drawn) [P-0586, 4-(4-((1R,5S)-3,8-diazabicyclo[3.2.1]octan-3-yl)-8-fluoro-2-(2-(hydroxymethyl)-3-methylbutoxy)quinazolin-7-yl)naphthalen-2-ol]",0.0001 to 10
4,"CN(C)CC(C)(C)COc1nc(N2C[C@H]3CC[C@@H](C2)N3)c2ccc(-c3cc(O)cc4ccccc34)c(F)c2n1 [P-0589, 4-(4-((1R,5S)-3,8-diazabicyclo[3.2.1]octan-3-yl)-2-(3-(dimethylamino)-2,2-dimethylpropoxy)-8-fluoroquinazolin-7-yl)naphthalen-2-ol]",0.0001 to 10
5,"CC(C)(CNS(C)(=O)=O)COc1nc(N2C[C@H]3CC[C@@H](C2)N3)c2ccc(-c3cc(O)cc4ccccc34)c(F)c2n1 [P-0590, N-(3-((4-((1R,5S)-3,8-diazabicyclo[3.2.1]octan-3-yl)-8-fluoro-7-(3-hydroxynaphthalen-1-yl)quinazolin-2-yl)oxy)-2,2-dimethylpropyl)methanesulfonamide]",0.0001 to 10
6,"CC(=O)NCC(C)(C)COc1nc(N2C[C@H]3CC[C@@H](C2)N3)c2ccc(-c3cc(O)cc4ccccc34)c(F)c2n1 [P-0591, N-(3-((4-((1R,5S)-3,8-diazabicyclo[3.2.1]octan-3-yl)-8-fluoro-7-(3-hydroxynaphthalen-1-yl)quinazolin-2-yl)oxy)-2,2-dimethylpropyl)acetamide]",0.0001 to 10
7,"CC(C)(CNC(=O)OCc1ccccc1)COc1nc(N2C[C@H]3CC[C@@H](C2)N3)c2ccc(-c3cc(O)cc4ccccc34)c(F)c2n1 [P-0592, benzyl (3-((4-((1R,5S)-3,8-diazabicyclo[3.2.1]octan-3-yl)-8-fluoro-7-(3-hydroxynaphthalen-1-yl)quinazolin-2-yl)oxy)-2,2-dimethylpropyl)carbamate]",0.0001 to 10
